A word on the inhibition: it is the share of the control response that was lost under treatment.

In experiment [1] the test system is Wnt activity (Sp5-Luc reporter, SW480 colon carcinoma cells). Kind of experiment: Wnt activity screening assay, Sp5-Luc reporter gene in SW480 cells. The following applies: Homo sapiens; for EC50: overnight incubation; for inhibition at 10 µM: given where EC50 >10 μM, read-out: percent inhibition at 10 μM. Type of experiment: cell-based. In a few lines:
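SW480 cells stably transduced with an Sp5 promoter (eight TCF/LEF sites)–firefly luciferase lentiviral reporter, plated at 4,000 cells/well in 1% FBS medium with compounds (10-point 1:3 series from 10 μM, 0.1% DMSO) overnight at 37 °C. BrightGlo luminescence normalised to DMSO; EC50 by four-parameter fit, else % inhibition at 10 μM.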
In general terms: In a reporter assay the amount or activity of a reporter protein is the signal.

Experiment [2] relates to primary human mesenchymal stem cells (hMSCs). Description: Chondrogenesis induction in hMSCs (nodule count). Particulars: 144 h, hMSC chondrogenesis, 6 days; for Emax: relative to TGF-β3 (10 ng/mL) positive control, read-out: Max. Activity as % TGF-β3 activity; for EC50: concentration required to induce 50% of TGF-β3 level, read-out: Conc. (nM) of 50% TGF-β3 activity. Type of experiment: cell-based. Here is the method:
Representative compounds were screened using primary human mesenchymal stem cells (hMSCs) to determine their ability to induce chondrogenesis (process by which cartilage is developed).
Primary human mesenchymal stem cells (hMSCs) were purchased from Lonza (Walkersville, Md.) and expanded in Mesenchymal Stem Cell Growth Media (Lonza). Cells between passage 3 and 6 were used for the experiments.
Each compound was dissolved in DMSO as a 10 mM stock and used to prepare compound source plates. Serial dilution (1:3, 6-point dose-response curves from 2700 nM to 10 nM) and compound transfer was performed using the ECHO 550 (Labcyte, Sunnyvale, Calif.) into 96-well clear bottom assay plates (Greiner Bio-One) with appropriate DMSO backfill for a final DMSO concentration of 0.03%. hMSCs were plated at 20,000 cells/well in 250 μL/well Incomplete Chondrogenic Induction Medium (Lonza; DMEM, dexamethasone, ascorbate, insulin-transferrin-selenium [ITS supplement], gentamycin-amphotericin [GA-1000], sodium pyruvate, proline and L-glutamine). TGF-β3 (10 ng/mL) was used as a positive control for differentiation while negative control wells were treated with 75 nL DMSO for normalization and calculating EC50 values. Cells were incubated at 37° C. and 5% CO2 for 6 days. To image chondrogenic nodules, the cells were fixed using 4% formaldehyde (Electron Microscopy Sciences), and stained with 2 μg/mL Rhodamine B (Sigma-Aldrich) and 20 μM Nile Red (Sigma-Aldrich) [Johnson K., et. al, A Stem Cell-Based Approach to Cartilage Repair, Science, (2012), 336(6082), 717-721]. The nodules imaged (4 images per well at 4× magnification) by excitation at 531 nm and emission at 625 nm and quantified using the CellInsight CX5 (Thermo Scientific). Number of nodules in each well was normalized to the average of 3 DMSO treated wells on the same plate using Excel (Microsoft Inc.). The normalized averages (fold change over DMSO) of 3 replicate wells for each compound concentration were calculated. Due to solubility limitations of some of the compounds, curve fitting was incomplete leading to inaccurate EC50 determinations.
Using TGF-β3 as a positive control, the concentration of representative compounds required to induce 50% levels of chondrogenesis is reported. In addition, the maximum activity of each compound and the respective dose that each compound reached maximum chondrogenesis activity is reported.

For the compound `O=C(Nc1cncc(-c2cc3c(-c4cc5c(-c6cccc(F)c6)ccnc5[nH]4)n[nH]c3cn2)c1)C1CC1` [Compound 20, N-(5-(3-(4-(3-Fluorophenyl)-1H-pyrrolo[2,3-b]pyridin-2-yl)-1H-pyrazolo [3,4-c]pyridin-5-yl)pyridin-3-yl)cyclopropanecarboxamide], the EC50 in experiment [1] is 97 nM. The Emax in experiment [2] stood at 22%.

On to `CN(C)Cc1cncc(-c2cc3c(-c4cc5c(-c6ccncc6)ccnc5[nH]4)n[nH]c3cn2)c1` [Compound 125, N,N-Dimethyl-1-(5-(3-(4-(pyridin-4-yl)-1H-pyrrolo[2,3-b]pyridin-2-yl)-1H-pyrazolo[3,4-c]pyridin-5-yl)pyridin-3-yl)methanamine], for which, in experiment [1], the inhibition at 10 µM amounted to 12.6% and the EC50 was greater than 10000 nM. The Emax in experiment [2] is 33%.

In the case of `c1cncc(-c2cc3c(-c4cc5cccnc5[nH]4)n[nH]c3cn2)c1` [Compound 256, 5-(Pyridin-3-yl)-3-(1H-pyrrolo[2,3-b]pyridin-2-yl)-1H-pyrazolo[3,4-c]pyridine], in experiment [1], the inhibition at 10 µM was 57.7% and the EC50 was greater than 10000 nM. Also, the Emax in experiment [2] came out at 28%.

As for `c1cncc(-c2ccnc3[nH]c(-c4n[nH]c5cnc(-c6cncc(CN7CCCC7)c6)cc45)cc23)c1` [Compound 98, 3-(4-(Pyridin-3-yl)-1H-pyrrolo[2,3-b]pyridin-2-yl)-5-(5-(pyrrolidin-1-ylmethyl)pyridin-3-yl)-1H-pyrazolo[3,4-c]pyridine], in experiment [1], the inhibition at 10 µM came out at 25.2% and the EC50 was greater than 10000 nM. For the same compound, in experiment [2], the Emax came out at 17%.

As for `CN1CCN(c2ccnc3[nH]c(-c4n[nH]c5cnc(-c6cn[nH]c6)cc45)cc23)CC1` [Compound 635, 3-(4-(4-Methylpiperazin-1-yl)-1H-pyrrolo[2,3-b]pyridin-2-yl)-5-(1H-pyrazol-4-yl)-1H-pyrazolo[3,4-c]pyridine], in experiment [1], the inhibition at 10 µM was determined as 25.4% and the EC50 is greater than 10000 nM. Further, in experiment [2], the EC50 is 10 nM and the Emax was 63%.

In the case of `CCNCc1cncc(-c2cc3c(-c4cc5c(-c6ccccc6F)ccnc5[nH]4)n[nH]c3cn2)c1` [Compound 62, N-((5-(3-(4-(2-Fluorophenyl)-1H-pyrrolo[2,3-b]pyridin-2-yl)-1H-pyrazolo [3,4-c]pyridin-5-yl)pyridin-3-yl)methyl)ethanamine], in experiment [1], the inhibition at 10 µM amounted to 6.8% and the EC50 was greater than 10000 nM. Moreover, in experiment [2], the EC50 was 30 nM and the Emax is 270%.

Take `Nc1cncc(-c2cc3c(-c4cc5c(-c6ccccc6F)ccnc5[nH]4)n[nH]c3cn2)c1` [Compound 59, 5-(3-(4-(2-Fluorophenyl)-1H-pyrrolo[2,3-b]pyridin-2-yl)-1H-pyrazolo[3,4-c]pyridin-5-yl)pyridin-3-amine]: in experiment [1], the inhibition at 10 µM was 14.3% and the EC50 was greater than 10000 nM. Moreover, in experiment [2], the Emax is 32%.

For the compound `CN1CCN(c2ccnc3[nH]c(-c4n[nH]c5cnc(-c6cncc(N(C)C)c6)cc45)cc23)CC1` [Compound 231, N,N-Dimethyl-5-(3-(4-(4-methylpiperazin-1-yl)-1H-pyrrolo[2,3-b]pyridin-2-yl)-1H-pyrazolo[3,4-c]pyridin-5-yl)pyridin-3-amine], in experiment [1], the inhibition at 10 µM stood at 8.2% and the EC50 was greater than 10000 nM. The Emax in experiment [2] was 14%.

For `CCCCC(=O)Nc1cncc(-c2cc3c(-c4cc5c(-c6cccnc6)ccnc5[nH]4)n[nH]c3cn2)c1` [Compound 103, N-(5-(3-(4-(Pyridin-3-yl)-1H-pyrrolo[2,3-b]pyridin-2-yl)-1H-pyrazolo[3,4-c]pyridin-5-yl)pyridin-3-yl)pentanamide], in experiment [1], the inhibition at 10 µM was found to be 7.8% and the EC50 was greater than 10000 nM. In experiment [2], the EC50 is 10 nM and the Emax was 53%.

Regarding `FC1(F)CCN(Cc2cncc(-c3cc4c(-c5cc6cccnc6[nH]5)n[nH]c4cn3)c2)C1` [Compound 278, 5-(5-((3,3-Difluoropyrrolidin-1-yl)methyl)pyridin-3-yl)-3-(1H-pyrrolo[2,3-b]pyridin-2-yl)-1H-pyrazolo[3,4-c]pyridine], in experiment [1], the EC50 was found to be 1350 nM. Besides, the Emax in experiment [2] is 45%.

As to `CN(C)CCNc1cc(F)cc(-c2ccnc3[nH]c(-c4n[nH]c5cnc(-c6cncnc6)cc45)cc23)c1` [Compound 475, N^1-(3-Fluoro-5-(2-(5-(pyrimidin-5-yl)-1H-pyrazolo[3,4-c]pyridin-3-yl)-1H-pyrrolo[2,3-b]pyridin-4-yl)phenyl)-N^2,N^2-dimethylethane-1,2-diamine], in experiment [1], the inhibition at 10 µM was determined as 10.9% and the EC50 was greater than 10000 nM. The Emax in experiment [2] stood at 17%.

With `CC(C)(C)C(=O)Nc1cncc(-c2cc3c(-c4cc5c(-c6cccc(F)c6)ccnc5[nH]4)n[nH]c3cn2)c1` [Compound 8, N-(5-(3-(4-(3-Fluorophenyl)-1H-pyrrolo[2,3-b]pyridin-2-yl)-1H-pyrazolo [3,4-c]pyridin-5-yl)pyridin-3-yl)pivalamide], the EC50 in experiment [1] came out at 73 nM. In experiment [2], the EC50 was 10 nM and the Emax came out at 114%.

Take `O=C(Nc1cncc(-c2cc3c(-c4cc5cccnc5[nH]4)n[nH]c3cn2)c1)c1ccccc1` [Compound 263, N-(5-(3-(1H-Pyrrolo[2,3-b]pyridin-2-yl)-1H-pyrazolo[3,4-c]pyridin-5-yl)pyridin-3-yl)benzamide]: in experiment [1], the inhibition at 10 µM turned out to be 17% and the EC50 is greater than 10000 nM.

In experiment [1], `Fc1cccc(-c2ccnc3[nH]c(-c4n[nH]c5cnc(-c6cccnc6)cc45)cc23)c1` [Compound 4, 3-(4-(3-Fluorophenyl)-1H-pyrrolo[2,3-b]pyridin-2-yl)-5-(pyridin-3-yl)-1H-pyrazolo[3,4-c]pyridine] showed an EC50 of 1210 nM.

On to `CC(C)CC(=O)Nc1cncc(-c2cc3c(-c4cc5c(-c6ccc(F)cc6)ccnc5[nH]4)n[nH]c3cn2)c1` [Compound 30, N-(5-(3-(4-(4-Fluorophenyl)-1H-pyrrolo[2,3-b]pyridin-2-yl)-1H-pyrazolo [3,4-c]pyridin-5-yl)pyridin-3-yl)-3-methylbutanamide], for which, in experiment [1], the EC50 was 444 nM.

Take `Fc1cccc(-c2ccnc3[nH]c(-c4n[nH]c5cnc(-c6cncc(OCc7ccccc7)c6)cc45)cc23)c1` [Compound 518, 5-(5-(Benzyloxy)pyridin-3-yl)-3-(4-(3-fluorophenyl)-1H-pyrrolo[2,3-b]pyridin-2-yl)-1H-pyrazolo[3,4-c]pyridine]: in experiment [1], the inhibition at 10 µM was 3.3% and the EC50 is greater than 10000 nM.

In the case of `c1cc(N2CCCCC2)c2cc(-c3n[nH]c4cnc(C5CCNCC5)cc34)[nH]c2n1` [Compound 601, 3-(4-(Piperidin-1-yl)-1H-pyrrolo[2,3-b]pyridin-2-yl)-5-(piperidin-4-yl)-1H-pyrazolo[3,4-c]pyridine], in experiment [1], the inhibition at 10 µM turned out to be 0% and the EC50 is greater than 10000 nM.

In the case of `O=C(Nc1cncc(-c2cc3c(-c4cc5c(-c6cccc(F)c6)ccnc5[nH]4)n[nH]c3cn2)c1)c1ccccc1` [Compound 11, N-(5-(3-(4-(3-Fluorophenyl)-1H-pyrrolo[2,3-b]pyridin-2-yl)-1H-pyrazolo [3,4-c]pyridin-5-yl)pyridin-3-yl)benzamide], in experiment [1], the inhibition at 10 µM was determined as 8.2% and the EC50 was greater than 10000 nM.

The values are drawn from patent US10285982B2, “3-(1H-pyrrolo[2,3-B]pyridin-2-yl)-1H-pyrazolo[3,4-C]pyridines and therapeutic uses thereof” (Samumed, LLC, priority 2015, dated 2019).
